From ChEMBL document CHEMBL3638654, “5-HT3 receptor modulators, methods of making, and use thereof” (2015)
Several values for one entry are separate records, joined by “and”; a condition that tells them apart may be missing. Equal entries are not always repeated.

Target: T1, 5-hydroxytryptamine receptor 3A (Homo sapiens, UniProt P46098)
T1 sequence (P46098 whole entry): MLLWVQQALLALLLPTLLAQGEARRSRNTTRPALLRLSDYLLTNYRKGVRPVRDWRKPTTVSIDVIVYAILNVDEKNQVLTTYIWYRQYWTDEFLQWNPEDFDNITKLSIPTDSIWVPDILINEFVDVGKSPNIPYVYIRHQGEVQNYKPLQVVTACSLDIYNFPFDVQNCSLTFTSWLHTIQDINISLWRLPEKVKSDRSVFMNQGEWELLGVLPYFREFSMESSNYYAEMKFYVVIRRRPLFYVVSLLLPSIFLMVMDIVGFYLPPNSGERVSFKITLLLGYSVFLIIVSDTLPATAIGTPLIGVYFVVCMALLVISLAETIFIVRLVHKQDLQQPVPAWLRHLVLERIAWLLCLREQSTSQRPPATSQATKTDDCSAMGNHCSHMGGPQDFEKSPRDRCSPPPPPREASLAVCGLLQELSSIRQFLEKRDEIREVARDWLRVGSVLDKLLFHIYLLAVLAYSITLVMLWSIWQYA
Experiment: Radioligand Binding Assay: The relative affinity of the various compounds for the human 5-HT3 receptor was measured in a radioligand binding assay, using a scintillation proximity assay (SPA) format. Test compounds were dissolved to 10 mM in 100% DMSO, then serially diluted at 10x assay concentrations in 100% DMSO in 96-well polypropylene plates and further diluted to 4x assay concentrations with the assay buffer. Samples were incubated in 50 mM Tris-HCl, pH 7.5, 3 mM MgCl2, 1 mM EDTA and 10% DMSO with 10 nM [9-methyl-3H]BRL-43694 (Perkin Elmer), 3 ug of human 5-HT3 receptor membranes (Perkin Elmer) and 0.5 mg/mL SPA beads (WGA PVT, Amersham Biosciences) in a final volume of 0.2 mL. Binding reactions were set up in wells of PicoPlates-96 (Perkin Elmer) by adding consecutively 50 uL of each competing compound or buffer, SPA beads, the radioligand and 5-HT3 receptor membranes. After an overnight incubation at room temperature on a Nutator mixer, plates were centrifuged for 15 min at 1,500 rpm.

O=C1c2cccc3[nH]nc(c23)CCN1CC1CN2CCC1CC2 (configuration not stated)
Ki: 579 nM and 241 nM

O=C1c2cccc3[nH]nc(c23)CN1CC1CN2CCC1CC2 (configuration not stated)
Ki: 217 nM and 24 nM
